For data set [1], the system named is Mycosphaerella graminicola; anamorph: Septoria tritici; Bayer code SEPTTR. In words: Fungicidal activity: leaf blotch of wheat, one-day protectant and three-day curative tests on wheat plants. The format is in vivo, Septoria tritici on wheat plants (variety Yuma). As to conditions: Zymoseptoria tritici. As for the experimental part:
Evaluation of Fungicidal Activity: Leaf Blotch of Wheat (Mycosphaerella graminicola; anamorph: Septoria tritici; Bayer code […]) Wheat plants (variety Yuma) were grown from seed in a greenhouse in 50% mineral soil/50% soil-less Metro mix until the first leaf was fully emerged, with 7-10 seedlings per pot. These plants were inoculated with an aqueous spore suspension of Septoria tritici either prior to or after fungicide treatments. After inoculation the plants were kept in 100% relative humidity (one day in a dark dew chamber followed by two to three days in a lighted dew chamber) to permit spores to germinate and infect the leaf. The plants were then transferred to a greenhouse for disease to develop. The following table presents the activity of typical compounds of the present disclosure when evaluated in these experiments. The effectiveness of the test compounds in controlling disease was determined by assessing the severity of disease on treated plants, then converting the severity to percent control based on the level of disease on untreated, inoculated plants.

[2] abbreviates: 24 h, read-out: SEPTTR 100 PPM 1DP (% disease control rating).
Setting [3] is: 72 h, read-out: SEPTTR 100 PPM 3DC (% disease control rating).
[4] abbreviates: 24 h, One-Day Protectant (1DP), 100 ppm, wheat plants, percent control relative to untreated, inoculated plants, read-out: SEPTTR 100 PPM 1DP (% disease control rating).
[5] abbreviates: 72 h, Three-Day Curative (3DC), 100 ppm, wheat plants, percent control relative to untreated, inoculated plants, read-out: SEPTTR 100 PPM 3DC (% disease control rating).

Structures are written as SMILES. Read-outs that look alike come from different tables or passages of the source.

The compound `CN(C)/C=N/c1nc(=O)n(C(=O)OCC(C)(C)C)cc1F` [Compound 1, 4-(dimethylamino-methyleneamino)-5-fluoro-2-oxo-2H-pyrimidine-1-carboxylic acid 2,2-dimethyl-propyl ester] showed a melting point of 162 to 164 °C. Moreover, the pest or weed control at 100 ppm in data set [1] (setting [2]) was 76 to 100%. Also, the pest or weed control at 100 ppm in data set [1] (setting [3]) lay in the range of 76 to 100%.

The compound `Nc1nc(=O)n(C(=O)OCc2ccccc2)cc1F` [Compound 2, benzyl 4-amino-5-fluoro-2-oxopyrimidine-1(2H)-carboxylate] returned a melting point of 212 to 215 °C. For the same compound, the pest or weed control at 100 ppm in data set [1] (setting [2]) was in the range of 76 to 100%. Further, the pest or weed control at 100 ppm in data set [1] (setting [3]) fell in the range of 76 to 100%.

Compound `CCOC(=O)n1cc(F)c(N)nc1=O` [Compound 3, ethyl 4-amino-5-fluoro-2-oxopyrimidine-1(2H)-carboxylate] displayed a melting point of 190 to 193 °C. Besides, the pest or weed control at 100 ppm in data set [1] (setting [2]) lay within 76 to 100%. The pest or weed control at 100 ppm in data set [1] (setting [3]) lay in the range of 76 to 100%.

`CC(C)OC(=O)n1cc(F)c(N)nc1=O` [Compound 4, isopropyl 4-amino-5-fluoro-2-oxopyrimidine-1(2H)-carboxylate] displayed a melting point of 217 to 219 °C. Also, the pest or weed control at 100 ppm in data set [1] (setting [2]) was in the range of 76 to 100%. Moreover, in data set [1] (setting [3]), the pest or weed control at 100 ppm fell in the range of 76 to 100%.

Take `Nc1nc(=O)n(C(=O)Oc2ccccc2)cc1F` [Compound 5, phenyl 4-amino-5-fluoro-2-oxopyrimidine-1(2H)-carboxylate]: the melting point is 175 to 180 °C. Also, in data set [1] (setting [2]), the pest or weed control at 100 ppm fell in the range of 76 to 100%. Also, the pest or weed control at 100 ppm in data set [1] (setting [3]) was 76 to 100%.

As to `COc1ccc(OC(=O)n2cc(F)c(N)nc2=O)cc1` [Compound 6], the melting point was in the range of 172.4 to 173.6 °C. For the same compound, the pest or weed control at 100 ppm in data set [1] (setting [4]) is 76 to 100%. The pest or weed control at 100 ppm in data set [1] (setting [5]) was 76 to 100%.

`Nc1nc(=O)n(C(=O)Oc2ccc(Cl)cc2)cc1F` [Compound 7] displayed a melting point of 143.2 to 146.3 °C. For the same compound, in data set [1] (setting [4]), the pest or weed control at 100 ppm was 76 to 100%. Besides, in data set [1] (setting [5]), the pest or weed control at 100 ppm is 76 to 100%.

Compound `Nc1nc(=O)n(C(=O)Oc2ccccc2Cl)cc1F` [Compound 8] returned a melting point of 222.5 to 224.6 °C. In addition, the pest or weed control at 100 ppm in data set [1] (setting [4]) lay in the range of 76 to 100%. Moreover, in data set [1] (setting [5]), the pest or weed control at 100 ppm was 76 to 100%.

Compound `Nc1nc(=O)n(C(=O)Oc2ccc(F)cc2)cc1F` [Compound 9] returned a melting point of 156.8 to 158.2 °C. Further, the pest or weed control at 100 ppm in data set [1] (setting [4]) fell in the range of 76 to 100%. Also, in data set [1] (setting [5]), the pest or weed control at 100 ppm was 76 to 100%.

As to `Cc1ccc(OC(=O)n2cc(F)c(N)nc2=O)cc1` [Compound 10], the melting point was in the range of 235 to 237 °C. For the same compound, in data set [1] (setting [4]), the pest or weed control at 100 ppm lay within 76 to 100%. The pest or weed control at 100 ppm in data set [1] (setting [5]) is 76 to 100%.

Regarding `Nc1nc(=O)n(C(=O)OCc2ccccc2Cl)cc1F` [Compound 11], the melting point lay within 145.8 to 146.8 °C. Moreover, the pest or weed control at 100 ppm in data set [1] (setting [4]) lay in the range of 76 to 100%. In addition, the pest or weed control at 100 ppm in data set [1] (setting [5]) is 76 to 100%.

`Nc1nc(=O)n(C(=O)OCCOCc2ccccc2)cc1F` [Compound 12]: the melting point was in the range of 142.8 to 145.1 °C. The pest or weed control at 100 ppm in data set [1] (setting [4]) is 76 to 100%. Also, the pest or weed control at 100 ppm in data set [1] (setting [5]) is 76 to 100%.

`COC(=O)n1cc(F)c(N)nc1=O` [Compound 13] gave a melting point of 240 to 243 °C. In addition, the pest or weed control at 100 ppm in data set [1] (setting [4]) was in the range of 76 to 100%. Moreover, the pest or weed control at 100 ppm in data set [1] (setting [5]) lay in the range of 76 to 100%.

In the case of `Nc1nc(=O)n(C(=O)OCCCCl)cc1F` [Compound 14], the melting point lay within 145.1 to 146.3 °C. The pest or weed control at 100 ppm in data set [1] (setting [4]) was in the range of 76 to 100%. In addition, the pest or weed control at 100 ppm in data set [1] (setting [5]) was 76 to 100%.

As for `COCCOC(=O)n1cc(F)c(N)nc1=O` [Compound 15], the melting point fell in the range of 94.2 to 96.3 °C. The pest or weed control at 100 ppm in data set [1] (setting [4]) was in the range of 76 to 100%. In data set [1] (setting [5]), the pest or weed control at 100 ppm fell in the range of 76 to 100%.

`Nc1nc(=O)n(C(=O)OCC(Cl)(Cl)Cl)cc1F` [Compound 16] gave a melting point of 219.3 to 221.1 °C. For the same compound, in data set [1] (setting [4]), the pest or weed control at 100 ppm fell in the range of 76 to 100%. For the same compound, the pest or weed control at 100 ppm in data set [1] (setting [5]) lay within 76 to 100%.

`C=CCOC(=O)n1cc(F)c(N)nc1=O` [Compound 17] had a melting point of 258 to 260.4 °C. In addition, in data set [1] (setting [4]), the pest or weed control at 100 ppm was 76 to 100%. For the same compound, the pest or weed control at 100 ppm in data set [1] (setting [5]) was 76 to 100%.

The compound `Nc1nc(=O)n(C(=O)Oc2ccc3ccccc3c2)cc1F` [Compound 18] showed a melting point of 165.8 to 168.1 °C. For the same compound, the pest or weed control at 100 ppm in data set [1] (setting [4]) was 76 to 100%. In addition, the pest or weed control at 100 ppm in data set [1] (setting [5]) was 76 to 100%.

As to `CCCCCOC(=O)n1cc(F)c(N)nc1=O` [Compound 19], the melting point fell in the range of 125.9 to 128.2 °C. In data set [1] (setting [4]), the pest or weed control at 100 ppm was in the range of 76 to 100%. Also, the pest or weed control at 100 ppm in data set [1] (setting [5]) was in the range of 76 to 100%.

The compound `Nc1nc(=O)n(C(=O)OC2CCCC2)cc1F` [Compound 20] displayed a melting point of 139.8 to 140.6 °C. The pest or weed control at 100 ppm in data set [1] (setting [4]) lay in the range of 76 to 100%. For the same compound, the pest or weed control at 100 ppm in data set [1] (setting [5]) is 76 to 100%.

Consider `Nc1nc(=O)n(C(=S)Oc2ccccc2)cc1F` [Compound 21, O-phenyl 4-amino-5-fluoro-2-oxopyrimidine-1(2H)-carbothioate], for which the melting point is 113 to 116 °C. The pest or weed control at 100 ppm in data set [1] (setting [4]) fell in the range of 76 to 100%. Besides, the pest or weed control at 100 ppm in data set [1] (setting [5]) is 76 to 100%.

Regarding `CN(C)/C=N/c1nc(=O)n(C(=O)OCc2ccccc2)cc1F` [Compound 23], the melting point fell in the range of 123.2 to 124.3 °C.

With `Cc1ccc(OC(=O)n2cc(F)c(/N=C/N(C)C)nc2=O)cc1` [Compound 24], the melting point fell in the range of 179 to 181.2 °C.

Compound `CN(C)/C=N/c1nc(=O)n(C(=O)OC2CCCC2)cc1F` [Compound 26] registered a melting point of 103.5 to 104.6 °C.

Broadly, the melting point is the temperature of the solid-liquid transition.

These data come from patent US8318758B2, “5-fluoro-2-oxopyrimidine-1(2H)-carboxylate derivatives” (Dow AgroSciences, LLC, priority 2009, dated 2012).
